Laboratory results taken from patent US7300645B2, “Oral composition comprising isomalt and remineralizing enhancing agent” (Sunstar Kabushiki Kaisha, priority 1998, dated 2007).

test: Remineralizing ability 1: bovine enamel block with artificial caries immersed in sugar test solution; details: sugar 20% in 3.0 mM calcium ion / 1.8 mM phosphate ion; sodium fluoride added to 2 ppm fluoride ion; immersed ten days
Description: The remineralization effect of the sugars was evaluated in an in vitro test using a bovine tooth according to the procedures described in D. J. White et al., Caries Res., 21, 228 (1987).
1. An enamel section having 4 mm length×3 mm width was obtained from the bovine tooth. The section was embedded in a dental resin to obtain an enamel block.
2. An enamel varnish was applied to a portion of approximately ⅓ of the surface of the enamel block in order not to cause the demineralization of that portion. Then, the enamel block was demineralized with a demineralizing solution containing 50% of saturated hydroxyapatite/0.1M lactic acid/pH 5.0 to prepare an artificial caries.
3. An enamel varnish was applied to a portion of approximately ⅔ of the surface of the treated enamel block in order not to cause the remineralization of that portion. The enamel block was immersed for ten days in a test solution prepared by adding the test sugar into an aqueous solution containing 3.0 mM calcium ion and 1.8 mM phosphate ion so that the concentration of the sugar became 20%, to perform the remineralization treatment.
4. Three thin sections having approximately 500 μm in thickness were prepared from the enamel block. The central portion of the thin sections was ground so that the thickness became approximately 100 μm using a double-side polishing machine.
5. The X-ray photograph was taken of the thin section prepared in the fourth step. The mineral amounts of the demineralized portion and the remineralized portion were calculated based on the brightness of the each portion and a distance from the surface using an image processor. The mineral amount difference between the demineralized and remineralized portions was expressed as a remineralization value. […] A control test was performed in a similar manner to that described above, except that the test solution containing only 3.0 mM calcium ion and 1.8 mM phosphate ion but not containing the sugar was used.
Further, a similar test was performed in which sodium fluoride was added to the test solution to 2 ppm in terms of fluoride ion.

Row | Molecule | Remineralization value [Vol. % μm]
1 | OC[C@H]1O[C@H](O[C@H]2O[C@H](CO)[C@@H](O)[C@H](O)[C@H]2O)[C@H](O)[C@@H](O)[C@@H]1O [Trehalose] | 1205
2 | α-D-glucopyranosyl-1,6-mannitol, its isomer, α-D-glucopyranosyl-1,6-sorbitol or a mixture thereof [Palatinit] | 2374
3 | OC[C@@H](O)[C@H](O)[C@@H](O)CO [Xylitol] | 1636
4 | OC[C@@H](O)[C@@H](O)[C@H](O)[C@@H](O)CO [Sorbitol] | 1358
5 | OC[C@@H](O)[C@@H](O)[C@H](O)[C@H](O)CO [Mannitol] | 1377
6 | OC[C@@H](O)[C@@H](O)CO [Erythritol] | 1330

same assay, conditions: sugar 20% in 3.0 mM calcium ion / 1.8 mM phosphate ion; system not containing fluoride; immersed ten days

Row | Molecule | Remineralization value [Vol. % μm]
7 | OC[C@H]1O[C@H](O[C@H]2O[C@H](CO)[C@@H](O)[C@H](O)[C@H]2O)[C@H](O)[C@@H](O)[C@@H]1O [Trehalose] | 715
8 | α-D-glucopyranosyl-1,6-mannitol, its isomer, α-D-glucopyranosyl-1,6-sorbitol or a mixture thereof [Palatinit] | 1057
9 | OC[C@@H](O)[C@H](O)[C@@H](O)CO [Xylitol] | 416
10 | OC[C@@H](O)[C@@H](O)[C@H](O)[C@@H](O)CO [Sorbitol] | 645
11 | OC[C@@H](O)[C@@H](O)[C@H](O)[C@H](O)CO [Mannitol] | 640
12 | OC[C@@H](O)[C@@H](O)CO [Erythritol] | 602
